Data taken from US12570639B2, “Tetrahydroquinoline derivative and medicinal use thereof” (Toray Industries, Inc., priority 2020, dated 2026).

What follows are compounds tested on Human fibrosarcoma cells (HT-1080 cells) (assay: In vitro inhibitory action against ferroptosis (Erastin-induced cell death, Cell Counting Kit-8)). Conditions: evaluation concentration 30 μmol/L, Erastin 3 μmol/L, 24 hours.
Type: cell-based
Description: The inhibitory action against ferroptosis of the tetrahydroquinoline derivative (I) or a pharmaceutically acceptable salt thereof was evaluated with Human fibrosarcoma cells (HT-1080 cells), by using, as an index, the inhibitory action against the cell death induced by treatment with a ferroptosis inducer, Erastin.
HT-1080 cells (ATCC) were cultured in a mixture (hereinafter referred to as vehicle) composed of DMEM/F12 (Thermo Fisher Scientific, Inc.), a final concentration of 10% fetal bovine serum (Thermo Fisher Scientific, Inc.), and a final concentration of 1% penicillin-streptomycin solution (Nacalai Tesque, Inc.). Cells were seeded into 96-well plates (Corning Inc.) at 5×10^4 cells/well and cultured overnight.
A test compound was dissolved in DMSO, and the resulting solution was diluted in the vehicle to a final concentration of 1% DMSO and then used. […] Thirty minutes after the addition of the test compound, Erastin (Cayman Chemical Co.) diluted in the vehicle at a final concentration of 3 μmol/L was added to wells. The wells added with the test compound and Erastin were grouped as “test compound,” and the wells added with no test compound and no Erastin were grouped as “background,” and the wells added with no test compound but with Erastin were grouped as “control.” Twenty-four hours after the addition of Erastin, 5 μL of Cell Counting Kit-8 (Dojindo Laboratories) was added to each well and incubated for 4 hours, and the absorbance at 450 nm was then measured for each well (N=2). […] Ferroptosis inhibition rate (%)=[1−{(Average absorbance value at 450 nm measured when a test compound is added)−(Average absorbance value at 450 nm measured in the background)}/{(Average absorbance value at 450 nm measured in the control)−(Average absorbance value at 450 nm measured in the background)}]×100 Equation 1

Compound | Ferroptosis inhibition rate (%)
7-fluoro-(1H-pyrazol-4-yl)-1,2,3,4-tetrahydroquinoline [Example 140] | 72.81%
COC(=O)[C@@H]1C[C@H](c2ccccc2)Nc2ccccc21 (relative stereo) [Example 88, methyl (2R*, 4R*)-2-phenyl-1,2,3,4-tetrahydroquinolin-4-carboxylate] | 97.70%
OC[C@@H]1C[C@H](c2ccccc2)Nc2ccccc21 (relative stereo) [Example 89, ((2R*,4R*)-2-phenyl-1,2,3,4-tetrahydroquinolin-4-yl)methanol] | 99.12%
C[C@@H]1C[C@H](c2ccccc2)Nc2ccccc21 (relative stereo) [Example 90, (2R*,4R*)-4-methyl-2-phenyl-1,2,3,4-tetrahydroquinoline] | 102.4%
c1ccc2c(c1)CCC(c1cn[nH]c1)N2 (centres unmarked) [Example 12, 2-(1H-pyrazol-4-yl)-1,2,3,4-tetrahydroquinoline] | 110.9%
c1ccc2c(c1)CCC(c1cn[nH]c1)N2 (centres unmarked) [Example 13, 2-(1H-pyrazol-4-yl)-1,2,3,4-tetrahydroquinoline] | 119.6%
COc1ccc(C2CCc3ccccc3N2)cn1 (centres unmarked) [Example 15, 2-(6-methoxypyridin-3-yl)-1,2,3,4-tetrahydroquinoline] | 89.22%
CC(C)(O)c1ccc(C2CCc3ccccc3N2)cc1 (centres unmarked) [Example 18, 2-(4-(1,2,3,4-tetrahydroquinolin-2-yl)phenyl)propan-2-ol] | 66.52%
NS(=O)(=O)c1cccc(C2CCc3ccccc3N2)c1 (centres unmarked) [Example 19, 3-(1,2,3,4-tetrahydroquinolin-2-yl)benzenesulfonamide] | 100.5%
NS(=O)(=O)c1ccccc1C1CCc2ccccc2N1 (centres unmarked) [Example 20, 2-(1,2,3,4-tetrahydroquinolin-2-yl)benzenesulfonamide] | 95.88%
c1ccc2c(c1)CCC(c1cc[nH]n1)N2 (centres unmarked) [Example 22, 2-(1H-pyrazol-3-yl)-1,2,3,4-tetrahydroquinoline] | 103.2%
O=C1CCc2cc(C3CCc4ccccc4N3)ccc2N1 (centres unmarked) [Example 23, 1,2,3,3′,4,4′-hexahydro-[2,6′-biquinolin]-2′(1′H)-one] | 68.45%
CN1C(=O)CCc2cc(C3CCc4ccccc4N3)ccc21 (centres unmarked) [Example 24, 1′-methyl-1,2,3,3′,4,4′-hexahydro-[2,6′-biquinolin]-2′(1′H)-one] | 59.67%
O=C1NCc2cc(C3CCc4ccccc4N3)ccc21 (centres unmarked) [Example 25, 5-(1,2,3,4-tetrahydroquinolin-2-yl)isoindolin-1-one] | 105.3%
CCN(CC)C(=O)c1ccc(C2CCc3ccccc3N2)cc1 (centres unmarked) [Example 39, N,N-diethyl-4-(1,2,3,4-tetrahydroquinolin-2-yl)benzamide] | 101.5%
CCNC(=O)c1ccc(C2CCc3ccccc3N2)cc1 (centres unmarked) [Example 40, N-ethyl-4-(1,2,3,4-tetrahydroquinolin-2-yl)benzamide] | 111.1%
O=C(c1ccc(C2CCc3ccccc3N2)cc1)N1CCCCC1 (centres unmarked) [Example 41, piperidin-1-yl(4-(1,2,3,4-tetrahydroquinolin-2-yl)phen-yl)methanone] | 102.2%
O=C(c1ccc(C2CCc3ccccc3N2)cc1)N1CCOCC1 (centres unmarked) [Example 42, morpholino(4-(1,2,3,4-tetrahydroquinolin-2-yl)phenyl)methanone] | 98.89%
CN1CCN(C(=O)c2ccc(C3CCc4ccccc4N3)cc2)CC1 (centres unmarked) [Example 43, (4-methylpiperazin-1-yl)(4-(1,2,3,4-tetrahydroquinolin-2-yl)phenyl)methanone] | 107.1%
N#Cc1cccc(C2CCc3ccccc3N2)c1 (centres unmarked) [Example 45, 3-(1,2,3,4-tetrahydroquinolin-2-yl)benzonitrile] | 109.1%
NC(=O)c1cccc(C2CCc3ccccc3N2)c1 (centres unmarked) [Example 46, 3-(1,2,3,4-tetrahydroquinolin-2-yl)benzamide] | 109.0%
OCc1ccccc1C1CCc2ccccc2N1 (centres unmarked) [Example 47, (2-(1,2,3,4-tetrahydroquinolin-2-yl)phenyl)methanol] | 85.21%
OCc1cccc(C2CCc3ccccc3N2)c1 (centres unmarked) [Example 48, (3-(1,2,3,4-tetrahydroquinolin-2-yl)phenyl)methanol] | 81.80%
OCc1ccc(C2CCc3ccccc3N2)cc1 (centres unmarked) [Example 49, (4-(1,2,3,4-tetrahydroquinolin-2-yl)phenyl)methanol] | 99.20%
c1ccc2c(c1)CCC(c1cnsc1)N2 (centres unmarked) [Example 50, 4-(1,2,3,4-tetrahydroquinolin-2-yl)isothiazole] | 103.2%
CC(C)c1ccc2c(c1)CCC(c1ccccc1)N2 (centres unmarked) [Example 54, 6-isopropyl-2-phenyl-1,2,3,4-tetrahydroquinoline] | 109.9%
Oc1ccc2c(c1)CCC(c1ccccc1)N2 (centres unmarked) [Example 55, 2-phenyl-1,2,3,4-tetrahydroquinolin-6-ol] | 93.72%
CC(C)(O)c1ccc2c(c1)CCC(c1ccccc1)N2 (centres unmarked) [Example 57, 2-(2-phenyl-1,2,3,4-tetrahydroquinolin-6-yl)propan-2-ol] | 89.18%
c1ccc(C2CCc3cc(CN4CCOCC4)ccc3N2)cc1 (centres unmarked) [Example 59, 4-((2-phenyl-1,2,3,4-tetrahydroquinolin-6-yl)methyl)morph-oline] | 76.73%

Same assay, conditions: evaluation concentration 50 μmol/L, Erastin 3 μmol/L, 24 hours

Compound | Ferroptosis inhibition rate (%)
COc1ccc(C2CCc3ccccc3N2)cc1 (centres unmarked) [Example 4, 2-(4-methoxyphenyl)-1,2,3,4-tetrahydroquinoline] | 99.10%
COc1cccc(C2CCc3ccccc3N2)c1 (centres unmarked) [Example 5, 2-(3-methoxyphenyl)-1,2,3,4-tetrahydroquinoline] | 99.69%
COc1ccccc1C1CCc2ccccc2N1 (centres unmarked) [Example 6, 2-(2-methoxyphenyl)-1,2,3,4-tetrahydroquinoline] | 90.22%
COc1ccc2c(c1)CCC(c1ccc3c(c1)OCO3)N2 (centres unmarked) [Example 7, 2-(benzo[d][1,3]dioxol-5-yl)-6-methoxy-1,2,3,4-tetrahydro-quinoline] | 93.95%
COc1ccc(C2CCc3ccc(OC)cc3N2)cc1 (centres unmarked) [Example 8, 7-methoxy-2-(4-methoxyphenyl)-1,2,3,4-tetrahydroquinoline] | 100.6%
c1ccc2c(c1)CCC(c1ccc3c(c1)OCO3)N2 (centres unmarked) [Example 9, 2-(benzo[d][1,3]dioxol-5-yl)-1,2,3,4-tetrahydroquinoline] | 88.84%
FC(F)(F)c1ccccc1C1CCc2ccccc2N1 (centres unmarked) [Example 10, 2-(2-(trifluoromethyl)phenyl)-1,2,3,4-tetrahydroquinoline] | 103.9%
Cn1cc(C2CCc3ccccc3N2)cn1 (centres unmarked) [Example 14, 2-(1-methyl-1H-pyrazol-4-yl)-1,2,3,4-tetrahydroquinoline] | 97.39%
COC(=O)c1ccc(C2CCc3ccccc3N2)cc1 (centres unmarked) [Example 17, methyl 4-(1,2,3,4-tetrahydroquinolin-2-yl)benzoate] | 98.12%
Fc1cccc(C2CCc3ccccc3N2)c1 (centres unmarked) [Example 27, 2-(3-fluorophenyl)-1,2,3,4-tetrahydroquinoline] | 113.1%
Fc1ccccc1C1CCc2ccccc2N1 (centres unmarked) [Example 28, 2-(2-fluorophenyl)-1,2,3,4-tetrahydroquinoline] | 109.4%
FC(F)(F)c1cccc(C2CCc3ccccc3N2)c1 (centres unmarked) [Example 30, 2-(3-(trifluoromethyl)phenyl)-1,2,3,4-tetrahydroquinoline] | 83.09%
CNC(=O)c1cccc(C2CCc3ccccc3N2)c1 (centres unmarked) [Example 44, N-methyl-3-(1,2,3,4-tetrahydroquinolin-2-yl)benzamide] | 114.3%
OCc1cccc2c1CCC(c1ccccc1)N2 (centres unmarked) [Example 51, (2-phenyl-1,2,3,4-tetrahydroquinolin-5-yl)methanol] | 84.55%
OCc1ccc2c(c1)NC(c1ccccc1)CC2 (centres unmarked) [Example 52, (2-phenyl-1,2,3,4-tetrahydroquinolin-7-yl)methanol] | 74.96%
c1ccc(C2CCc3ccccc3N2)nc1 (centres unmarked) [Example 53, 2-(pyridin-2-yl)-1,2,3,4-tetrahydroquinoline] | 111.3%
COC(=O)c1ccc2c(c1)CCC(c1ccccc1)N2 (centres unmarked) [Example 56, methyl 2-phenyl-1,2,3,4-tetrahydroquinoline-6-carboxylate] | 100.1%
CC(C)(C)OC(=O)Nc1ccc2c(c1)CCC(c1ccccc1)N2 (centres unmarked) [Example 63, tert-butyl (2-phenyl-1,2,3,4-tetrahydroquinolin-6-yl)carbamate] | 68.73%
